Patent US8435978B2, “Substituted sulfonamide compounds” (Gruenenthal GmbH, priority 2006, dated 2013)
Structures can show the parent of a compound that is named as a salt. Where two headings read alike, the source gives them in different places.

Key:
human B1R receptor = molecular target: T1, human B1R receptor (Homo sapiens, UniProt P46663); test: Functional study on the bradykinin receptor 1 (B1R), FLIPR Ca2+ assay, hB1R cells; assay type: cell-based; settings: agonist Lys-Des-Arg9-bradykinin 0.5 nM, % inhibition compared with the maximum achievable inhibition; for inhibition at 10 µM: read-out: B1R Antagonism, human [10 μM] % Inhibition
T1 construct: host or cells: CHO K1 cells (Chinese hamster ovary), stably transfected
T1 sequence (P46663 1-353): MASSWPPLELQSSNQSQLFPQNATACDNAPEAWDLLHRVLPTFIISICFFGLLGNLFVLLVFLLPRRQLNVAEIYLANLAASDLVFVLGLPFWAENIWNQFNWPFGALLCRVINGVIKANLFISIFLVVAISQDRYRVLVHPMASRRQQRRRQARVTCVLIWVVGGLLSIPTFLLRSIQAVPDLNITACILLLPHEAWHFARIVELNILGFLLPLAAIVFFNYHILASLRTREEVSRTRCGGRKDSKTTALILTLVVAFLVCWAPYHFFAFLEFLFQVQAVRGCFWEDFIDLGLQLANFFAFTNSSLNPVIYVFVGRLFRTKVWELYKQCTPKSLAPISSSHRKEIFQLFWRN
Method in brief: (§1)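 CHO K1 cells stably expressing human or rat B1R were loaded with Fluo-4 and read on a FLIPR (ex 488/em 540 nm, peak fluorescence). Test compounds at 10 μM were added first, then after 10 min agonist: Lys-Des-Arg9-bradykinin 0.5 nM for hB1R, Des-Arg9-bradykinin 100 nM for rB1R; % inhibition versus maximum inhibition.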

B1R receptor of the rat = molecular target: T2, B1R receptor of the rat (Rattus norvegicus, UniProt P97583); test: Functional study on the bradykinin receptor 1 (B1R), FLIPR Ca2+ assay, rB1R cells; assay type: cell-based; settings: agonist Des-Arg9-bradykinin 100 nM, % inhibition compared with the maximum achievable inhibition; for inhibition at 10 µM: read-out: B1R Antagonism, rat [10 μM] % Inhibition
T2 construct: host or cells: CHO K1 cells (Chinese hamster ovary), stably transfected
T2 sequence (P97583 1-337): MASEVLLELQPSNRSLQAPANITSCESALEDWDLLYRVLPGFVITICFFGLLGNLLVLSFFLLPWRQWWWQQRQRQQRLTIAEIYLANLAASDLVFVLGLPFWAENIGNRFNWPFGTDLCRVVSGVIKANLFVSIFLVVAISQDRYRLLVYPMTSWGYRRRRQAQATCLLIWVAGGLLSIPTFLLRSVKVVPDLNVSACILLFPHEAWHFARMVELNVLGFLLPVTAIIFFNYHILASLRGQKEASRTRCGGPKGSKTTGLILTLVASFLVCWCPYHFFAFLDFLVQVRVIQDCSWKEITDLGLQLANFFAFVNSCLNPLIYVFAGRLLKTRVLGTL
Method in brief: as §1

[1] = test substance 10 μM, hB1R CHO K1 cells
[2] = test substance 10 μM, rB1R CHO K1 cells

Row | Compound | inhibition at 10 µM (human B1R receptor; CHO-K1, test substance 10 μM) [%] | inhibition at 10 µM (B1R receptor of the rat; CHO-K1, test substance 10 μM) [%] | also measured
1 | COc1cc(C)c(S(=O)(=O)N2CCCCC2COCC(=O)N2CCc3cnccc3C2)c(C)c1 (stereo not drawn) [Example 96, 1-(3,4-dihydro-2,6-naphthyridin-2(1H)-yl)-2-((1-(4-methoxy-2,6-dimethylphenyl-sulfonyl)piperidin-2-yl)methoxy)ethanone hydrochloride] | – | – | inhibition at 10 µM (human B1R receptor; [1]): 105%; inhibition at 10 µM (B1R receptor of the rat; [2]): 91.3%
2 | O=C(COCC1CCCCN1S(=O)(=O)c1c(Cl)cc(Cl)cc1Cl)N1CCC(c2cccnc2)C1 (stereo not drawn) [Example 389] | – | – | B1R Antagonism, human [10 μM] % Inhibition (human B1R receptor; [1]): 100.51%; B1R Antagonism, rat [10 μM] % Inhibition (B1R receptor of the rat; [2]): 100.49%
3 | COc1cccc(-c2cc(NC(=O)COCC3CCCCN3S(=O)(=O)c3c(C)cc(OC)cc3C)n[nH]2)c1 (stereo not drawn) [Example 541, 2-((1-(4-methoxy-2,6-dimethylphenylsulfonyl)piperidin-2-yl)methoxy)-N-(5-(3-methoxyphenyl)-1H-pyrazol-3-yl)acetamide] | 103 | 108 | –
4 | COc1cc(C)c(S(=O)(=O)N2CCCCC2COCC(=O)NCc2cccc(N3CCOCC3)c2)c(C)c1 (stereo not drawn) [Example 437, 2-((1-(4-methoxy-2,6-dimethylphenylsulfonyl)piperidin-2-yl)methoxy)-N-(3-morpholinobenzyl)acetamide] | 36.1 | 102 | –
5 | O=C(COCC1Cc2ccccc2CN1S(=O)(=O)c1ccc(Cl)cc1Cl)N1CCC(N2CCCC2)CC1 (stereo not drawn) [Example 17] | – | – | B1R Antagonism, human [10 μM] % Inhibition (human B1R receptor; [1]): 95.53%; B1R Antagonism, rat [10 μM] % Inhibition (B1R receptor of the rat; [2]): 96.94%
6 | Cc1cc(C)c(S(=O)(=O)N2Cc3ccccc3CC2COCC(=O)NCc2cccc(N3CCOCC3)c2)c(C)c1 (stereo not drawn) [Example 50, N-(3-morpholin-4-yl-benzyl)-2-[2-(2,4,6-trimethyl-phenylsulfonyl)-1,2,3,4-tetrahydro-isoquinolin-3-ylmethoxy]-acetamide] | 65.7 | 50.3 | –
7 | COc1cc(C)c(S(=O)(=O)N2CCCC2COCC(=O)N(C)C(CN2CCOCC2)c2ccccc2)c(C)c1 (stereo not drawn) [Example 304, 2-((1-(4-methoxy-2,6-dimethylphenylsulfonyl)pyrrolidin-2-yl)methoxy)-N-methyl-N-(2-morpholino-1-phenylethyl)acetamide] | 71.1 | 102 | –
8 | O=C(COCC1CCCCN1S(=O)(=O)c1c(Cl)cccc1Cl)NCC1CCCN(Cc2ccccc2)C1 (stereo not drawn) [Example 314, N-((1-benzylpiperidin-3-yl)methyl)-2-((1-(2,6-dichlorophenylsulfonyl)piperidin-2-yl)methoxy)acetamide] | 105 | 104 | –

Further lines, with some results ahead:

Row | inhibition at 10 µM (human B1R receptor; CHO-K1, test substance 10 μM) [%] | inhibition at 10 µM (B1R receptor of the rat; CHO-K1, test substance 10 μM) [%] | Compound | also measured
9 | 102 | 102 | COc1cc(C)c(S(=O)(=O)N2CCCCC2COCC(=O)N2CCC(N3CCN(C)CC3)CC2)c(C)c1 (stereo not drawn) [Example 112, 2-((1-(4-methoxy-2,6-dimethylphenylsulfonyl)piperidin-2-yl)methoxy)-1-(4-(4-methylpiperazin-1-yl)piperidin-1-yl)ethanone hydrochloride] | –
10 | 90.8 | 99.7 | COc1cc(C)c(S(=O)(=O)N2CCCC2COCC(=O)N2CCCCC2Cc2ccccn2)c(C)c1 (stereo not drawn) [Example 449, 2-((1-(4-methoxy-2,6-dimethylphenylsulfonyl)pyrrolidin-2-yl)methoxy)-1-(2-(pyridin-2-ylmethyl)piperidin-1-yl)ethanone] | –
11 | 92.6 | 96.2 | COc1cc(C)c(S(=O)(=O)N2CCCC2COCC(=O)N2CCCN(c3ncccc3C#N)CC2)c(C)c1 (stereo not drawn) [Example 531, 2-(4-(2-((1-(4-methoxy-2,6-dimethylphenylsulfonyl)pyrrolidin-2-yl)methoxy)acetyl)-1,4-diazepan-1-yl)nicotinonitrile] | –
12 | 103 | 99.7 | COc1cc(C)c(S(=O)(=O)N2CCCC2COCC(=O)N2CCC(N3CCCC3)CC2)c(C)c1 (stereo not drawn) [Example 518, 2-((1-(4-methoxy-2,6-dimethylphenylsulfonyl)pyrrolidin-2-yl)methoxy)-1-(4-(pyrrolidin-1-yl)piperidin-1-yl)ethanone] | –
